Test results: patent US6440440B1, “Biocidal benzylbiphenyl derivatives” (priority 1998, dated 2002)
Structures can show the parent of a compound that is named as a salt.

What was measured:
Type in all cases: cell-based
Sporobolomyces roseus = experiment: Screening against yeasts; set-up: key: 3 = complete inhibition of growth, 2 = growth partially controlled; conditions: test compound concentration 500 μmol
Procedure: (§1) The stock solutions with the test compounds were pipetted into multiwell plates and mixed with warm tryptose broth agar (2.6%) in order to reach a test compound concentration of 500 μMol. The medium was allowed to cool and subsequently inoculated with the bacteria. Wells were placed in an incubator at 27° C. and a relative humidity of 70%. After sufficient growth of the untreated cultures, the test was evaluated.
(§2) 3: complete inhibition of bacterial growth
(§3) 2: bacterial growth partially controlled
(§4) A number of compounds of formula (I) were also tested in a screening against certain The test conditions are the same as described in biological example C.1. The concentration of the test compound was also 500 μmol, and the scoring system used was also the same.
Sporobolomyces roseus (21)

Debaryomyces hansenii = experiment: Screening against yeasts; set-up: key: 3 = complete inhibition of growth, 2 = growth partially controlled; conditions: test compound concentration 500 μM
Procedure: as §1, §2, §3, §4
Debaryomyces hansenii (19)

Pseudomonas aeruginosa = experiment: Primary bacteria screening; set-up: key: score: 3 = complete inhibition of growth, 2 = growth partially controlled; conditions: test compound concentration 500 μMol in tryptose broth agar, 27° C.
Procedure: as §1, §2, §3

Escherichia coli = experiment: Primary bacteria screening; set-up: key: score: 3 = complete inhibition of growth, 2 = growth partially controlled; conditions: test compound concentration 500 μMol in tryptose broth agar, 27° C.
Procedure: as §1, §2, §3

Rhodotorula rubra = experiment: Screening against yeasts; set-up: key: 3 = complete inhibition of growth, 2 = growth partially controlled; conditions: test compound concentration 500 μmol
Procedure: as §1, §2, §3, §4

Providencia rettgeri = experiment: Poison plate assay, combinations with BAC; conditions: BAC alone 80 μmol
Procedure: Biocidal activity against bacterial/yeast growth was determined with the poison plate assay. To obtain the required concentrations of the test compound, calculated amounts of stock solutions (DMSO) were pipetted into multi-well plates. Tryptose agar (except for Rhodotorula: PDA) was added aseptically and uniform distribution was obtained by shaking. Each plate was inoculated with a bacterial/yeast suspension. After incubation at 27° C. and 70% relative humidity, for a period long enough to allow complete growth of controls, percentage activity as compared to the control was scored.
Possible synergy was investigated using Limpel's formula (Richter, D. L., Pestic. Sci. 1987, 19: 309-315): [formula]
where EC is the expected additive response, or calculated activity, X is the observed percentage control when compound A is applied alone and Y is the observed percentage control when compound B is applied alone. Synergy was considered to occur when the observed effect, or measured activity, of a combination of both compounds was greater than the corresponding EC value.
The table C.7 to C.8 below enumerate the measured and calculated activities of BAC and compounds 20, 42 and 40 when tested as a single test compound or as a combination against Providencia rettgeri. BAC (benzalconium chloride) is a well-bacteride and was tested at a concentration of 40 and 80 μmol. Compounds 20, 40 and 42 were tested at a concentration of 10, 20, 40, 80 and 160 μmol. When a synergistic effect was observed, the “measured” and “calculated” activity are indicated with a bold typeface.

Row | Molecule | Test yeast (21) Sporobolomyces roseus (score) (Sporobolomyces roseus) | Test yeast (19) Debaryomyces hansenii (score) (Debaryomyces hansenii) | P. aeruginosa (growth inhibition score) (Pseudomonas aeruginosa) | E. coli (growth inhibition score) (Escherichia coli) | Test yeast (20) Rhodotorula rubra (score) (Rhodotorula rubra) | Measured activity (Providencia rettgeri) [%]
1 | Cl.Cl.Fc1ccc(-c2ccc(C(c3ccccc3)C3CCN(C4CCNCC4)CC3)cc2)cc1.O (racemic) [Co. No. 7, (±)-4-[[4′-fluoro(1,1′-biphenyl)-4-yl]phenylmethyl](1,4′-bipiperidine)dihydro-chloride.monohydrate] | 3 | 3 | 3 | 3 | 2 | –
2 | CN(C)CCC1CCN(CCC(O)(c2ccc(-c3ccccc3)cc2)c2ccc(Cl)cc2Cl)CC1.Cl.Cl (racemic) [Co. No. 34, (±)-α-[(1,1 ′-biphenyl)-4-yl]-a-(2,4-dichlorophenyl)-4-[2-(dimethylamino)ethyl]-1-piperidine-propanol dihydrochloride] | – | – | 1 | 1 | – | –
3 | CN(C)CCCN(C)CCC(c1ccccc1)c1ccc(-c2ccccc2)cc1 (racemic) [Co. No. 38, (±)-N-[3-[(1,1′-biphenyl)-4-yl]-3-phenylpropyl]-N,N′,N′-trimethylpropanediamine] | – | – | 1 | 1 | – | –
4 | CNCCCN(C)CCCN(C)C(c1ccccc1)c1ccc(-c2ccccc2)cc1 (racemic) [Co. No. 52, (±)-N-[[(1,1′-biphenyl)4-yl]phenylmethyl]-N,N′-dimethyl-N′-[3-(methylamino)propyl]-1,3-propanediamine trihydrochloride] | 3 | 3 | 1 | 3 | 3 | –
5 | CNCCNCCC(c1ccccc1)c1ccc(-c2ccccc2)cc1.Cl.Cl (racemic) [Co. No. 56, (±)-N-[3-([1,1′-biphenyl]-4-yl)-3-phenylpropyl]-N′-methyl-1,2-ethanediamine dihydrochloride] | – | – | 1 | 3 | – | –
6 | Cl.Cl.c1ccc(-c2ccc(C(c3ccccc3)C3CCN(C4CCNCC4)CC3)cc2)cc1 (single isomer, unassigned) [compound 22] | 3 | 3 | 1 | 3 | 1 | –
7 | c1ccc(-c2ccc(C(c3ccccc3)C3CCN(C4CCNCC4)CC3)cc2)cc1 (single isomer, unassigned) [compound 23] | 3 | 3 | 3 | 1 | 3 | –
8 | NCCCNCCC(c1ccccc1)c1ccc(-c2ccccc2)cc1.NCCCNCCC(c1ccccc1)c1ccc(-c2ccccc2)cc1.O=C(O)C(O)C(O)C(=O)O.O=C(O)C(O)C(O)C(=O)O.O=C(O)C(O)C(O)C(=O)O (single isomer, unassigned) [compound 69] | – | – | 1 | 3 | – | –
9 | NCCCN1CCC(C(c2ccccc2)c2ccc(-c3ccccc3)cc2)CC1.NCCCN1CCC(C(c2ccccc2)c2ccc(-c3ccccc3)cc2)CC1.O.O.O=C(O)C(O)C(O)C(=O)O.O=C(O)C(O)C(O)C(=O)O.O=C(O)C(O)C(O)C(=O)O (single isomer, unassigned) [compound 84] | – | – | 3 | 3 | – | –
10 | CC(C)O.Cl.Cl.Fc1ccc(C(=C2CCN(C3CCNCC3)CC2)c2ccc(-c3ccccc3)cc2)cc1 [Co. No. 2, 4-[[(1,1′-biphenyl)-4-yl](4-fluorophenyl)methylen](1,4′-bipiperidine)dihydrochloride 2-propanolate (1:1)] | – | – | 1 | 3 | – | –
11 | Cl.Cl.NCCCN1CCC(C(c2ccccc2)c2ccc(-c3ccccc3)cc2)CC1.O.O.O.O (centres unmarked) [Co. No. 78, (A)-4-[([1,1′-biphenyl]-4-yl)phenylmethyl]-1-piperidinepropanamine dihydrochloride tetrahydrate] | – | – | 3 | 3 | – | –
12 | Fc1ccc(C(=C2CCN(C3CCNCC3)CC2)c2ccc(-c3ccc(F)cc3)cc2)cc1.O=C(O)/C=C/C(=O)O.O=C(O)/C=C/C(=O)O [compound 1] | – | – | 1 | 3 | – | –
13 | Cl.Cl.c1ccc(C(=C2CCN(C3CCNCC3)CC2)c2ccc(-c3ccccc3)cc2)cc1 [compound 3] | – | – | 1 | 1 | – | –
14 | Cl.Fc1ccc(-c2ccc(C(=C3CCN(C4CCNCC4)CC3)c3ccccc3)cc2)cc1 [compound 5] | – | – | 1 | 2 | – | –
15 | Cl.Cl.Fc1ccc(-c2ccc(C(c3ccc(Cl)cc3)C3CCN(C4CCNCC4)CC3)cc2)cc1 (centres unmarked) [compound 8] | – | – | 3 | 3 | – | –
16 | O=S(=O)(O)c1ccc(-c2ccc(C(c3ccc(S(=O)(=O)O)cc3)C3CCN(C4CCNCC4)CC3)cc2)cc1 (centres unmarked) [compound 10] | – | – | 1 | 1 | – | –
17 | CN(C)CCCN1CCC(N2CCC(C(c3ccccc3)c3ccc(-c4ccccc4)cc3)CC2)CC1.Cl.Cl.Cl (centres unmarked) [compound 15] | – | – | 1 | 1 | – | –

Row | Molecule | Test yeast (21) Sporobolomyces roseus (score) (Sporobolomyces roseus) | Test yeast (19) Debaryomyces hansenii (score) (Debaryomyces hansenii) | P. aeruginosa (growth inhibition score) (Pseudomonas aeruginosa) | E. coli (growth inhibition score) (Escherichia coli) | Test yeast (20) Rhodotorula rubra (score) (Rhodotorula rubra) | Measured activity (Providencia rettgeri) [%]
18 | CN1CCC(N2CCC(C(c3ccccc3)c3ccc(-c4ccccc4)cc3)CC2)CC1 (centres unmarked) [compound 19] | – | – | 1 | 1 | – | –
19 | CN(C)CCC1CCN(CC=C(c2ccccc2)c2ccc(-c3ccccc3)cc2)CC1.Cl.Cl [compound 24] | – | – | 1 | 1 | – | –
20 | CN(C)CCC1CCN(CCC(c2ccccc2)c2ccc(-c3ccccc3)cc2)CC1.Cl.Cl (centres unmarked) [compound 28] | – | – | 1 | 1 | – | –
21 | CN(C)C1CCN(CCC(c2ccccc2)c2ccc(-c3ccccc3)cc2)CC1 (centres unmarked) [compound 32] | – | – | 1 | 1 | – | –
22 | CN(C)CCCN(C)CC=C(c1ccccc1)c1ccc(-c2ccccc2)cc1 [compound 35] | – | – | 1 | 3 | – | –
23 | CN(C)CCCNCC=C(c1ccccc1)c1ccc(-c2ccccc2)cc1 [compound 36] | – | – | 1 | 1 | – | –
24 | CN(C)CCNCC=C(c1ccccc1)c1ccc(-c2ccccc2)cc1 [compound 37] | – | – | 1 | 1 | – | –
25 | CC(C)O.Cl.Cl.Cl.O.c1ccc(-c2ccc(C(c3ccccc3)C3CCN(C4CCN(C5CCNCC5)CC4)CC3)cc2)cc1 (centres unmarked) [compound 44] | – | – | 1 | 3 | – | –
26 | Cl.c1ccc(-c2ccc(C(c3ccccc3)N3CCC(N4CCCCC4)CC3)cc2)cc1 (centres unmarked) [compound 45] | – | – | 1 | 1 | – | –
27 | CN(C1CCN(C2CCNCC2)CC1)C(c1ccccc1)c1ccc(-c2ccccc2)cc1.O.O (centres unmarked) [compound 48] | – | – | 1 | 1 | – | –
28 | CN(CCCN)CCCNC(c1ccccc1)c1ccc(-c2ccccc2)cc1.O=C(O)C(=O)O.O=C(O)C(=O)O.O=C(O)C(=O)O (centres unmarked) [compound 53] | – | – | 1 | 3 | – | –
29 | CN(C)CCCN(C)CCCN(C)C(c1ccccc1)c1ccc(-c2ccccc2)cc1.Cl.Cl.Cl.O (centres unmarked) [compound 54] | – | – | 1 | 3 | – | –
30 | NCCCNCCC(c1ccccc1)c1ccc(-c2ccccc2)cc1.NS(=O)(=O)O.NS(=O)(=O)O (centres unmarked) [compound 67] | – | – | 2 | 3 | – | –
31 | CN(CCN)CCC(c1ccccc1)c1ccc(-c2ccccc2)cc1.O=c1[nH]sc2ccccc12 (centres unmarked) [compound 73] | – | – | 3 | 3 | – | –
32 | CN(C1CCNCC1)C1CCN(CCC(c2ccccc2)c2ccc(-c3ccccc3)cc2)CC1.Cl.Cl.Cl.O.O.O (centres unmarked) [compound 89] | – | – | 1 | 3 | – | –
33 | benzalconium chloride [BAC, reference compound] | – | – | – | – | – | 100
